Data reported in paper PMC11627468, “Novel enzyme‐resistant pancreatic polypeptide analogs evoke pancreatic beta‐cell rest, enhance islet cell turnover, and inhibit food intake in mice” (Biofactors (Oxford, England), 2024).

Columns and labels:
[1] = in vivo; cited from earlier work
Method: Despite these prominent therapeutically exploitable advantages, clinical utilization of native PP as a positive NPY4R modulator is limited by a short circulatory half‐life of less than 7 min.[17] This appears to be due to rapid cleavage of the N‐terminal dipeptide, Ala^1‐Pro^2, from PP by the ubiquitous enzyme dipeptidyl peptidase‐4 (DPP‐4).[18] […] As such, DPP‐4 resistant PP mole ...

C57BL/6 mice [2] = test: Glucose‐stimulated plasma insulin in mice; type: in vivo; settings: peptide 25 nmol/kg with glucose 18 mmol/kg i.p., versus glucose control; n = 6
Method: (§1) Acute in vivo studies were conducted in groups (n = 6) of 4‐month‐old male C57BL/6 mice (Envigo, Huntington, UK). All mice were maintained on standard rodent chow (10% fat, 30% protein, and 60% carbohydrate; Trouw Nutrition, Northwich, UK), and drinking water provided ad libitum. Mice were housed individually and kept in a temperature‐controlled environment (22 ± 2°C), with a 12‐h light/dark cycle. Experiments were carried out in accordance with the UK Animal Scientific Procedures Act 1986 as well as being approved by Ulster University Animal Ethics Review Committee (AWERB) committee and protected by the UK Home Office Animal project license number PPL2902, approved on April 26, 2021. Acute effects of test peptides on food intake were tested in overnight (16 h) fasted mice. Briefly, fasted mice were administered an intraperitoneal (i.p.) injection of saline vehicle (0.9% (w/v) NaCl) alone or in combination with test peptides (each at 25, 75, or 200 nmol/kg bw) and cumulative food intake measured at regular intervals, to assess the pharmacodynamic profile of the test peptides. For food intake studies, mice were provided with preweighed rodent maintenance diet in their food hopper at t = 0 min, which was then re‐weighed at each timepoint with all due care taken to account for any wastage or crumbling of the food pellets. In this regard, the investigator was present at all times during the 180‐min test period to ensure accuracy and consistency in all measurements. Furthermore, effects of PP or related peptides (25 nmol/kg bw) on glucose homeostasis and insulin secretion were evaluated in overnight fasted mice following i.p. injection of glucose alone (18 mmol/kg bw) or in combination with PP peptides (each at 25 nmol/kg bw). […] Blood glucose was measured immediately using a hand‐held Ascencia Contour blood glucose meter (Bayer Healthcare, Newbury, Berkshire, UK). For plasma insulin, blood was collected in chilled fluoride/heparin‐coated microcentrifuge tubes (Sarstedt, Numbrecht, Germany) and centrifuged using a Beckman microcentrifuge (Beckman Instruments, Galway, Ireland) for 10 min at 12,000 rpm. Plasma was separated and stored at −20°C, until determination of plasma insulin by radioimmunoassay.[23]

BRIN‐BD11 beta‐cells [3] = test: In vitro insulin secretion from BRIN‐BD11 beta‐cells; type: cell-based; settings: 20 min, insulin radioimmunoassay, n = 8
Method: Effects of the PP and related peptides on insulin secretion were examined in pancreatic BRIN‐BD11 beta‐cells. The secretory characteristics of this cell line have been described in detail previously.[22] Cells were cultured in RPMI 1640 media (Gibco Life Technologies Ltd), with a glucose concentration of 11.1 mM and supplemented with 10% v/v fetal bovine serum (Gibco), 1% v/v antibiotics (0.1 mg/mL streptomycin and 100 U/mL penicillin) at 37°C in 5% atmospheric CO2. For experimentation, cells were seeded into 24‐well plates (Falcon Ltd) at a density of 150,000 cells per well. Following overnight attachment, media was aspirated, and cells were preincubated in 1.1 mM glucose KRB buffer for 40 min. Following preincubation, the 1.1 mM glucose solution was removed and 1 mL of KRB test solution, containing 16.7 mM glucose with PP peptides (10^−12 to 10^−6 M) was added for 20 min. In a separate series, PP peptides were also incubated in the presence of alanine (10 mM) at 16.7 mM glucose to further investigate the effects on insulin secretion. For all experiments, following a 20 min incubation period, the supernatant was collected and stored at −20°C until insulin concentration determination using a dextran‐coated charcoal insulin radioimmunoassay.[23]

BRIN‐BD11 beta‐cells [4] = test: Beta‐cell proliferation (Ki‐67 staining); type: cell-based; settings: peptide 10^−6 M, versus control cultures, n = 3
Method: (§2) To assess the effects of PP and related peptides (10^−8 and 10^−6 M) on beta‐cell proliferation and apoptosis, BRIN‐BD11 beta‐cells were seeded onto sterilized, clear‐glass coverslips (16 mm diameter) and placed in 12‐well plates (Falcon Ltd) at a density of 40,000 cells per well and cultured for 18 h. Media control (11.1 mM glucose), GLP‐1 (10^−8 and 10^−6 M), and a cytokine cocktail mix (IL‐1β [100 U/mL], IFNγ [20 U/mL], TNFα [200 U/mL], Sigma Aldrich, UK) were employed as controls, as appropriate. Cells were then rinsed with PBS and fixed using 4% paraformaldehyde. After antigen retrieval with sodium citrate buffer at 95°C for 20 min, blocking was performed using 2% bovine serum albumin (BSA) for 45 min. For proliferation studies, the slips were then incubated at 37°C with rabbit anti‐Ki‐67 primary antibody (Abcam, ab15580), and subsequently with Alexa Fluor® 488 secondary antibody. Coverslips were mounted onto polylysine‐coated microscope slides using a 50:50 glycerol:PBS solution and stored at 4°C until required for analysis. To assess the ability of PP peptides to protect against cytokine‐induced apoptosis, cells were seeded, washed, and fixed as above, with the exception that the media was supplemented with the cytokine mix. The slips were then incubated at 37°C with TUNEL reaction mix for 60 min (Roche Diagnostics, Germany), and mounted onto microscope slides. To assess receptor specificity, co‐incubation of PP peptides with the well characterized NPY4R antagonist, (S)‐VU0637120,[24] at 10^−5 M was employed for beta‐cell proliferation experiments, conducted as detailed above. All slides were viewed using a fluorescent microscope (Olympus System Microscope, model BX51; Southend‐on‐Sea, UK) and photographed by DP70 camera adapter system. Proliferation/TUNEL positive frequency was determined using the cell‐counter function on ImageJ Software and expressed as % of total cells analyzed.

NPY4R = target: T1, NPY4R (Rattus norvegicus, UniProt Q63447); test: Receptor specificity: beta‐cell proliferation with NPY4R antagonist (S)‐VU0637120; type: cell-based; settings: peptide 10^−6 M co‐incubated with NPY4R antagonist (S)‐VU0637120 10^−5 M; Ki‐67; n = 3
T1 construct: endogenous in cells; host or cells: BRIN-BD11 beta cells
T1 sequence (Q63447 whole entry): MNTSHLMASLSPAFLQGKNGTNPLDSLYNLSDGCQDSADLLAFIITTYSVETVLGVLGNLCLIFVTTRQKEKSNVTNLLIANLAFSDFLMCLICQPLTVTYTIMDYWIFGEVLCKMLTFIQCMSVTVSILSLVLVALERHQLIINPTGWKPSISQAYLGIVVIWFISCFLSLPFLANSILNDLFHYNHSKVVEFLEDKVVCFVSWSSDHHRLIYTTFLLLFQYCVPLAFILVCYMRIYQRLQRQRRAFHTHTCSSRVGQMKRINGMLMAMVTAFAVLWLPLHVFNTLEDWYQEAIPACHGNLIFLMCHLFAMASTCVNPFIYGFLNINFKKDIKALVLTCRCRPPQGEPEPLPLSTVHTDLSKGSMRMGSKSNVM
Method: as §2, with “The slips were then incubated at 37°C with TUNEL reaction mix for 60 min (Roche Diagnostics, Germany), and mounted onto microscope slides. To assess receptor specificity, co‐incubation of PP peptides with the well characterized NPY4R antagonist, (S)‐VU0637120,[24] at 10^−5 M was employed for beta‐cell proliferation experiments, conducted as detailed above. All slides were viewed using a fluorescent microscope (Olympus System Microscope, model BX51; Southend‐on‐Sea, UK) and photographed by DP70 camera adapter system.” left out

C57BL/6 mice [5] = test: Glucose tolerance in mice; type: in vivo; settings: peptide 25 nmol/kg i.p. conjointly with glucose 18 mmol/kg, overnight fasted mice; n = 6
Method: as §1, with “For plasma insulin, blood was collected in chilled fluoride/heparin‐coated microcentrifuge tubes (Sarstedt, Numbrecht, Germany) and centrifuged using a Beckman microcentrifuge (Beckman Instruments, Galway, Ireland) for 10 min at 12,000 rpm. Plasma was separated and stored at −20°C, until determination of plasma insulin by radioimmunoassay.[23]” left out

## CC[C@H](C)[C@H](NC(=O)[C@H](Cc1ccc(O)cc1)NC(=O)[C@H](CCCNC(=N)N)NC(=O)[C@H](CCCNC(=N)N)NC(=O)[C@H](CC(C)C)NC(=O)[C@H](CC(=O)O)NC(=O)[C@H](C)NC(=O)[C@H](C)NC(=O)[C@H](Cc1ccc(O)cc1)NC(=O)[C@H](CCC(N)=O)NC(=O)[C@H](C)NC(=O)[C@H](CCSC)NC(=O)[C@H](CCC(N)=O)NC(=O)[C@H](CCC(=O)O)NC(=O)[C@@H]1CCCN1C(=O)[C@@H](NC(=O)[C@H](C)NC(=O)[C@H](CC(N)=O)NC(=O)[C@H](CC(=O)O)NC(=O)CNC(=O)[C@@H]1CCCN1C(=O)[C@H](Cc1ccc(O)cc1)NC(=O)[C@@H](NC(=O)[C@@H]1CCCN1C(=O)[C@H](CCC(=O)O)NC(=O)[C@H](CC(C)C)NC(=O)[C@@H]1CCCN1C(=O)[C@H](C)N)C(C)C)[C@@H](C)O)C(=O)N[C@@H](CC(N)=O)C(=O)N[C@@H](CCSC)C(=O)N[C@@H](CC(C)C)C(=O)N[C@H](C(=O)N[C@@H](CCCNC(=N)N)C(=O)N1CCC[C@H]1C(=O)N[C@@H](CCCNC(=N)N)C(=O)N[C@@H](Cc1ccc(O)cc1)C(N)=O)[C@@H](C)O [PP, Pancreatic polypeptide]
[1]
  circulatory half‐life: less than 7 min
C57BL/6 mice [2]
  glucose‐induced insulin secretion (plasma insulin): slightly decreasing (p = <0.05 to 0.01)
BRIN‐BD11 beta‐cells [3]; peptide 10^−6 M
  insulin secretion at 16.7 mM glucose: slight inhibitory effect
BRIN‐BD11 beta‐cells [3]; peptides 10^−12 to 10^−7 M
  insulin secretion at 16.7 mM glucose: no discernible impact
BRIN‐BD11 beta‐cells [4]
  BRIN‐BD11 cell proliferation: significantly (p < 0.001) enhanced
NPY4R
  dependence of beta‐cell proliferative benefit on NPY4R signaling: dependent on NPY4R signaling
C57BL/6 mice [5]
  glucose homeostasis (blood glucose): Neither native PP, nor related PP analogs, exerted any effect
